From US12622919B2, “Methods for treating hypervirulent Klebsiella pneumoniae infection” (priority 2023, dated 2026)

Key:
[1] = system: K. pneumoniae strain 17ZR101 (K2 hvKp clinical strain); test: Antibiotic susceptibility test (microdilution), strain 17ZR101; type: cell-based, Klebsiella pneumoniae; settings: CLSI
Procedure: (§1) The antimicrobial susceptibility of the two Klebsiella strains was determined by the microdilution method according to the guidelines recommended by the Clinical and Laboratory Standards Institute^2. Escherichia coli strain ATCC 25922 was included as a quality control strain. All tests were performed in duplicate, and each test included three biological replicates.

[2] = system: K. pneumoniae strain HKU1 (clinical cKp strain); test: Antibiotic susceptibility test (microdilution), strain HKU1; type: cell-based, Klebsiella pneumoniae; settings: CLSI
Procedure: as §1

IL-6 = test: Serum IL-6 by ELISA in 17ZR101-infected mice; type: in vivo, C57BL6 mice; settings: 17ZR101-infected mice treated with ASA; untreated 587.965
Procedure: (§2) The serum level of IL-6 of the test animals was measured by using the IL-6 Mouse Uncoated ELISA Kit (Thermo fisher scientific, 88-7064-88), IL-1β level by IL-1 beta Mouse Uncoated ELISA Kit (Thermo fisher scientific, 88-7013-86) and that of IFN-γ was measured by using the IFN gamma Mouse Uncoated ELISA Kit (Thermo fisher scientific, 88-7314-88) according to instructions of the manufacturer.
(§3) In ASA, NPXS, CTX, AzA, CsA, DXMS, and F-ara treatment experiment, mice challenged by 17ZR101 were given intraperitoneally 100 mg kg^−1 ASA, 50 mg kg^−1 NPXS, 150 mg kg^−1 CTX, 200 mg kg^−1 AzA, 20 mg kg^−1 CsA, 10 mg kg^−1 DXMS and 40 mg kg^−1 F-ara at 3 hpi, another group treated with an equal volume of PBS or 200 μL of corn oil solution was included as a control group. In ASA and CAZ/AVI combination treatment experiment, mice were given intraperitoneally 100 mg kg^−1 ASA plus 8 mg kg^−1 CAZ and 4 mg kg^−1 AVI or 8 mg kg^−1 CAZ and 4 mg kg^−1 AVI at 1 hpi. The health status and weight of all mice were observed and recorded.

[3] = system: F4/80+ cells and Ly6G+ cells in lungs; test: Flow cytometry of lung cells at 4 hpi, 10^7 CFU hvKp; type: in vivo, C57BL6 mice
Procedure: (§4) Cells collected from different tissues of the test animals were subjected to flow cytometry analysis as described previously^4. Cells from spleens were obtained by mashing the organ through a 70-μm cell strainer and collected in a tube containing RPMI 1640 medium supplemented with 5% fetal bovine serum. To prepare lung cells, lung tissues were excised and incubated in HBSS containing 1×HEPES and Collagenase type I. The tissue fragments were forced through a 70-μm strainer as described above. Red blood cells were lysed with ACK lysing buffer.
Dead cells were excluded from the analysis by propidium iodide (Sigma-Aldrich Corporation, P4170-1G) or ghost Dye™ violet 510 (Tonbo Biosciences, 13-0870-T100) staining in all flow cytometry experiments. […] The acquired data were analyzed by the FlowJo software (Version 10.0.7, Treestar, Palo Alto, CA).
as §3, with “In ASA and CAZ/AVI combination treatment experiment, mice were given intraperitoneally 100 mg kg^−1 ASA plus 8 mg kg^−1 CAZ and 4 mg kg^−1 AVI or 8 mg kg^−1 CAZ and 4 mg kg^−1 AVI at 1 hpi.” left out

hvKp strain 17ZR101 [4] = test: Mouse sepsis model, ~10^4 CFU 17ZR101, drug at 3 hpi: survival, body weight, spleen weight; type: in vivo, C57BL6 mice
Procedure: All animal experiments were approved by the Animal Ethics Committee of the City University of Hong Kong and followed the guidelines of the Institutional Laboratory Animal Research Unit. Six- to eight-weeks-old animals of both sexes were used in this study. For the sepsis model, mice were intravenously injected with ˜10^4 colony forming units (CFU) of the test stain resuspended in 200 μL PBS. For the pneumonia model, mice were anesthetized by inhaling isoflurane, and ˜10^6 CFU of the strain resuspended 10 μL PBS were dripped into the mouse's nasal cavity. The heads of the mice were hold upright for 30 s afterwards.
as §3

hvKp strain 17ZR101 [5] = test: Bacteria burden in organs, 10^7 CFU hvKp; type: in vivo, C57BL6 mice; settings: 4 hpi
Procedure: Ten-fold dilutions of tissue homogenate were prepared and spread onto MacConkey agar plates containing 2 μg mL^−1 cefotaxime to determine the bacterial load in different organs of the infected animals. To determine the number of intracellular bacteria, cells prepared for flow cytometry from lungs and spleens were collected and then incubated with 300 μg mL^−1 amikacin to kill the extracellular bacteria. The number of total and intracellular bacteria was counted and presented as the number of CFU g^−1 tissue.
as §3

[6] = system: F4/80+ cells (IMs), neutrophils in lungs; test: Flow cytometry of lung cells, 10^4 CFU 17ZR101 sepsis model; type: in vivo, C57BL6 mice; settings: ASA at 3 hpi
Procedure: as §4
Dead cells were excluded from the analysis by propidium iodide (Sigma-Aldrich Corporation, P4170-1G) or ghost Dye™ violet 510 (Tonbo Biosciences, 13-0870-T100) staining in all flow cytometry experiments. Fluorescently labeled mAbs against mouse CD45, CD11b, CD206, CD80, Ly6G, CD11c, SiglecF, Ly6C and appropriate isotype controls were obtained from Biolegend. For intracellular cytokine measurement, cells were incubated with Cell Activation Cocktail (BioLegend, 423303) at 37° C. in the dark for 4 h. Anti-IFN-γ-PE antibody (eBioscience, 12-7177-81) was used to determine intracellular expression of IFN-γ. For p-STAT1 measurement, the cells were fixed with IC fixation buffer (eBioscience, 00-8222-49) for 30 min and then suspended in 1 mL of methanol to permeabilize the cell membrane, left to stand for 10 min on ice. At the time of p-STAT1 measurement, the cell suspensions were washed with FACS buffer and then stained with PE-anti-STAT1 Phospho antibody (Biolegend, 686404). […] The acquired data were analyzed by the FlowJo software (Version 10.0.7, Treestar, Palo Alto, CA).
as §3, with “In ASA and CAZ/AVI combination treatment experiment, mice were given intraperitoneally 100 mg kg^−1 ASA plus 8 mg kg^−1 CAZ and 4 mg kg^−1 AVI or 8 mg kg^−1 CAZ and 4 mg kg^−1 AVI at 1 hpi.” left out

[7] = system: Stat1 and STAT1-regulated chemokines, M1 markers, Cox-1, Cox-2; test: RNA-Seq / qPCR of lung cells of 17ZR101-infected mice; type: in vivo, C57BL6 mice
Procedure: RNA was extracted from lung samples by homogenization in TRIzol reagent (15596026, Thermo Fisher Scientific), followed by chloroform extraction and isopropanol precipitation. The extracted RNA was reverse-transcribed into cDNA by using a SuperScript® III First-Strand Synthesis SuperMix kit (11752050, ThermoFisher Scientific). Real-time quantitative PCR was performed by using a QuantStudio™ 7 Pro Real-Time PCR System, following the manufacturer's instructions. cDNA samples were tested in duplicates, and the relative amount of mRNA in different samples (Gapdh, Il1b, Ifng, Cxcl2, Cxcl10, Ifna, Ifnb, Ifnar1, Stat1, Hmgb1, Il-6, Myd88, and Tlr4) was determined by the comparative threshold cycle (ΔΔCT) method, using the glyceraldehyde-3-phosphate dehydrogenase gene (Gapdh) for normalization.
Total RNA was extracted from lung samples by homogenization in TRIzol reagent, followed by chloroform extraction and isopropanol precipitation. DNA was removed by DNase treatment (TURBO DNA-Free™ Kit). RNA samples were sent to Novogene (HK) Company Limited for sequencing. Routine procedures of mRNA purification and library generation were performed by Novogene. Sequencing reads alignment was performed by using HISAT2. Count aligned reads and quantification were calculated based on exon regions using FeatureCounts. […] Gene Set Enrichment Analysis was performed for gene ontology enrichment analysis. The raw RNA-seq data has been deposited in NCBI database under the accession number PRJNA851242.
as §3

IFN-γ = test: Serum IFN-γ by ELISA in 17ZR101-infected mice; type: in vivo, C57BL6 mice; settings: 17ZR101-infected mice treated with F-ara; untreated 2742.872
Procedure: as §2, §3

[8] = RNA-Seq lung cells, 17ZR101+ASA vs 17ZR101, unit not given

CN(C)c1cc(NC(=O)CNC(C)(C)C)c(O)c2c1C[C@H]1C[C@H]3[C@H](N(C)C)C(O)=C(C(N)=O)C(=O)[C@@]3(O)C(O)=C1C2=O [tigecycline]
antimicrobial susceptibility [1]: susceptible | antimicrobial susceptibility [2]: susceptible

CC(=O)Oc1ccccc1C(=O)O [ASA, acetylsalicylic acid]
serum IL-6 production (IL-6): 57.964 pg/mL | F4/80+ cells infiltration in lungs [3]: could suppress F4/80^+ cells infiltration | Ly6G+ cells in lungs [3]: not significantly | spleen/body weight ratio (hvKp strain 17ZR101 [4]; 12 hpi, ASA 100 mg kg^−1 i.p. at 3 hpi, untreated 0.863%): 0.495% | bodyweight loss (hvKp strain 17ZR101 [4]; 12 hpi, ASA 100 mg kg^−1 i.p. at 3 hpi, untreated 7.206%): 2.076% | mice protected (survival) (hvKp strain 17ZR101 [4]; 17ZR101 infection, 100 mg kg^−1 ASA i.p. at 3 hpi, at 48 hpi): 100% | bacteria burden in various organs (hvKp strain 17ZR101 [5]): without contributing to bacteria clearance | F4/80+ cells infiltration into the lungs [6]: suppressed F4/80^+ cells infiltration into the lungs | levels of neutrophils in the lungs [6]: slight decrease | M1 macrophage polarization ([6]; CD80 MFI): able to inhibit M1 macrophage polarization | expression level of M1 macrophage markers ([7]; RNA-Seq and qPCR, lung cells, ASA): decrease in expression level of M1 macrophage markers | Cxcl9 expression change [7, 8]: −2.118 | Cxcl10 expression change [7, 8]: −3.590 | Cxcl11 expression change [7, 8]: −2.098 | Stat1 expression change ([7]; RNA-Seq lung cells, 17ZR101+ASA vs 17ZR101, unit not printed here (Log 2 fold change)): −1.056 | Cox-1 and Cox-2 expression at the mRNA level ([7]; upon ASA administration): no significant difference

O=P1(N(CCCl)CCCl)NCCCO1 (stereo not shown) [cyclophosphamide]
protective effect (survival) (hvKp strain 17ZR101 [4]; 17ZR101 infection, 150 mg kg^−1 CTX i.p. at 3 hpi): did not exhibit any protective effect

CO/N=C(\C(=O)N[C@@H]1C(=O)N2C(C(=O)O)=C(COC(C)=O)CS[C@H]12)c1csc(N)n1 [cefotaxime]
antimicrobial susceptibility [1]: resistant | antimicrobial susceptibility [2]: resistant

C[C@@H](O)[C@H]1C(=O)N2C(C(=O)O)=C(S[C@@H]3CN[C@H](C(=O)N(C)C)C3)[C@H](C)[C@H]12 [meropenem]
antimicrobial susceptibility [1]: resistant | antimicrobial susceptibility [2]: resistant

polymyxin B
antimicrobial susceptibility [1]: susceptible | antimicrobial susceptibility [2]: susceptible

NCC[C@H](O)C(=O)N[C@@H]1C[C@H](N)[C@@H](O[C@H]2O[C@H](CN)[C@@H](O)[C@H](O)[C@H]2O)[C@H](O)[C@H]1O[C@H]1O[C@H](CO)[C@@H](O)[C@H](N)[C@H]1O [amikacin]
antimicrobial susceptibility [1]: susceptible | antimicrobial susceptibility [2]: susceptible

Nc1nc(F)nc2c1ncn2[C@@H]1O[C@H](CO)[C@@H](O)[C@@H]1O [F-ara, Fludarabine]
serum IFN-γ level (IFN-γ): 445.133 pg/mL | mice protected from death (hvKp strain 17ZR101 [4]; 17ZR101 infection, 40 mg kg^−1 F-ara i.p. at 3 hpi, within 48 h): 50%

CC(C)(O/N=C(\C(=O)N[C@@H]1C(=O)N2C(C(=O)[O-])=C(C[n+]3ccccc3)CS[C@H]12)c1csc(N)n1)C(=O)O [ceftazidime]
antimicrobial susceptibility [1]: resistant | antimicrobial susceptibility [2]: resistant
